Source: patent US20250332173A1, “COMPOUNDS AND METHODS FOR MODULATING NUCLEIC ACID SPLICING” (REMIX THERAPEUTICS INC., priority 2021, published 2025)
Where two headings read alike, the source gives them in different places.

Assays:
MYB mRNA = experiment: RT-qPCR splicing assay, MYB canonical junction (CJ) and alternative junction (AJ) mRNA; type: cell-based, human; conditions: Homo sapiens; for AC50: increase in MYB alternative junction (AJ) mRNA, read-out: MYB AJ AC50
In short: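 A673 or K562 cells were treated for 24 h at 37 °C with an 11-point 3-fold compound dilution series (top final concentration 10 uM, DMSO ≤0.25%). After lysis, one-step TaqMan RT-qPCR quantified junction transcripts, normalized to PPIA for A673 or to GAPDH/GUSB for K562.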

Target C = experiment: RT-qPCR splicing assay panel, Target C canonical junction (CJ) mRNA; type: cell-based, human; conditions: Homo sapiens
In short: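 A673 or K562 cells were treated for 24 h at 37 °C with compound in 11-point 3-fold dilution (top 10 uM final, DMSO ≤0.25%). Lysates then went to one-step RT-qPCR measuring canonical-junction mRNA, normalized to GAPDH, GUSB or PPIA.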

[1] = canonical junction qPCR panel, Table 5, read-out: MYB (decrease in CJ mRNA levels, IC50)
[2] = decrease in MYB canonical junction (CJ) mRNA, RT-qPCR, read-out: MYB CJ IC50
[3] = canonical junction qPCR panel, Table 5, read-out: Target C (decrease in CJ mRNA levels, IC50)
[4] = Table 5 panel, canonical junction qPCR, compound concentration having 50% response in CJ decrease, read-out: MYB IC50 (decrease in CJ mRNA levels)
[5] = Table 5 panel, canonical junction qPCR, compound concentration having 50% response in CJ decrease, read-out: Target C IC50 (decrease in CJ mRNA levels)

IC50 (MYB mRNA; [1])	IC50 (MYB mRNA; [2])	IC50 (Target C; [3])	IC50 (MYB mRNA; [4])	IC50 (Target C; [5])	SMILES	AC50 (MYB mRNA; RT-qPCR)
–	0.1 to 1 µM	–	0.1 to 1 µM	0.1 to 1 µM	Cc1cn2cc(-c3ccc4c(=O)n(C5CCNCC5)cnc4c3)cc(F)c2n1 [Compound 205]	0.1 to 1 µM
–	< 0.1 µM	–	0.1 to 1 µM	0.1 to 1 µM	Cn1cc2cc(-c3ccc4c(=O)n(C5CCNCC5)cnc4c3)cc(F)c2n1 [Compound 206]	0.1 to 1 µM
–	1 to 10 µM	–	1 to 10 µM	1 to 10 µM	Cc1cn2cc(-c3ccc4c(=O)n(C5CCN(C)CC5)cnc4c3)cc(F)c2n1 [Compound 207]	1 to 10 µM
–	1 to 10 µM	–	1 to 10 µM	1 to 10 µM	Cc1cn2cc(-c3ccc4c(=O)n(C5CCNCC5)cnc4c3F)cc(F)c2n1 [Compound 210]	1 to 10 µM
–	1 to 10 µM	–	0.1 to 1 µM	1 to 10 µM	Cc1cn2cc(-c3ccc4c(c3)CCN(C3CCNCC3)C4=O)cc(Cl)c2n1 [Compound 216, 6-[8-chloro-2-methylimidazo[1,2-a]pyridin-6-yl]-2-(piperidin-4-yl)-3,4-dihydroisoquinolin-1-one]	0.1 to 1 µM
–	1 to 10 µM	–	1 to 10 µM	> 10 µM	Cc1cn2cc(-c3ccc4c(c3)CCN(C3CCNCC3)C4=O)cc(C)c2n1 [Compound 217, 6-[2,8-dimethylimidazo[1,2-a]pyridin-6-yl]-2-(piperidin-4-yl)-3,4-dihydroisoquinolin-1-one]	1 to 10 µM
–	> 10 µM	–	> 10 µM	> 10 µM	Cc1cn2cc(-c3ccc4c(c3)CCN(C3CCNCC3)C4=O)nc2c(C)n1 [Compound 221, 6-[6,8-dimethylimidazo[1,2-a]pyrazin-2-yl]-2-(piperidin-4-yl)-3,4-dihydroisoquinolin-1-one]	> 10 µM
–	1 to 10 µM	–	> 10 µM	> 10 µM	Cc1cn2cc(-c3ccc4c(c3)CCN(C3CCNCC3)C4=O)ncc2n1 [Compound 224]	> 10 µM
–	1 to 10 µM	–	1 to 10 µM	> 10 µM	Cc1cn2cc(-c3ccc4c(=O)n(C5CCN(C)CC5)cnc4c3F)cc(F)c2n1 [Compound 227]	1 to 10 µM
–	0.1 to 1 µM	–	0.1 to 1 µM	0.1 to 1 µM	Cc1cn2cc(-n3cnc4cc(N5CCNCC5)ccc4c3=O)cc(F)c2n1 [Compound 228]	0.1 to 1 µM
–	> 10 µM	–	> 10 µM	> 10 µM	Cc1cn2cc(-n3cnc4cc(N5CCN(C)CC5)ccc4c3=O)cc(F)c2n1 [Compound 229]	> 10 µM
–	< 0.1 µM	–	< 0.1 µM	< 0.1 µM	Cc1cn2cc(-c3cc(F)c4c(=O)n(C5CCNCC5)cnc4c3)cc(F)c2n1 [Compound 230]	< 0.1 µM
–	0.1 to 1 µM	–	0.1 to 1 µM	1 to 10 µM	Cc1cn2cc(-c3cc(F)c4c(=O)n(C5CCN(C)CC5)cnc4c3)cc(F)c2n1 [Compound 231, 5-fluoro-7-{8-fluoro-2-methylimidazo[1,2-a]pyridin-6-yl}-3-(1-methylpiperidin-4-yl)quinazolin-4-one]	0.1 to 1 µM
–	< 0.1 µM	–	0.1 to 1 µM	0.1 to 1 µM	Cc1cn2cc(-c3ccc4c(=O)n(C5CCNC6(CC6)C5)cnc4c3)cc(F)c2n1 (centres unmarked) [Compound 236]	0.1 to 1 µM
–	0.1 to 1 µM	–	0.1 to 1 µM	1 to 10 µM	Cc1cn2cc(-c3ccc4c(=O)n(C5CCNC(C)(C)C5)cnc4c3)cc(F)c2n1 (centres unmarked) [Compound 237]	0.1 to 1 µM
–	< 0.1 µM	–	< 0.1 µM	0.1 to 1 µM	Cc1cn2nc(-c3cc(F)c4c(=O)n(C5CCN(C)CC5)cnc4c3)cc(C)c2n1 [Compound 242]	< 0.1 µM
< 0.1 µM	0.1 to 1 µM	0.1 to 1 µM	–	–	Cc1cn2cc(-c3ncc4c(=O)n([C@H]5CCNC6(CC6)C5)ccc4n3)cc(F)c2n1 [Compound 1458, 6-[(7S)-4-azaspiro[2.5]octan-7-yl]-2-(8-fluoro-2-methyl-imidazo[1,2-a]pyridin-6-yl)pyrido[4,3-d]pyrimidin-5-one]	< 0.1 µM

The next lines start with the compound.

SMILES	IC50 (MYB mRNA; [1])	IC50 (MYB mRNA; [2])	IC50 (Target C; [3])	IC50 (MYB mRNA; [4])	IC50 (Target C; [5])	AC50 (MYB mRNA; RT-qPCR)
Cc1cn2nc(-c3ccc4c(=O)n(C5CC(C)N[C@H](C)C5)ncc4n3)cc(C)c2n1 (stereo in doubt) [Compound 1536, 2-(2,8-dimethylimidazo[1,2-b]pyridazin-6-yl)-6-[(2S,6R)-2,6-dimethyl-4-piperidyl]pyrido[2,3-d]pyridazin-5-one]	0.1 to 1 µM	0.1 to 1 µM	0.1 to 1 µM	–	–	0.1 to 1 µM
Cc1cn2nc(-c3ccc4c(=O)n(C5C[C@@H](C)N[C@H](C)C5)ncc4n3)cc(C)c2n1 (stereo in doubt) [Compound 1537, 2-(2,8-dimethylimidazo[1,2-b]pyridazin-6-yl)-6-[(2R,6R)-2,6-dimethyl-4-piperidyl]pyrido[2,3-d]pyridazin-5-one]	0.1 to 1 µM	0.1 to 1 µM	0.1 to 1 µM	–	–	0.1 to 1 µM
Cc1cn2nc(-c3ccc4c(=O)n([C@H]5CC(C)N[C@@H](C)C5)ncc4n3)cc(C)c2n1 (stereo in doubt) [Compound 1538, 2-(2,8-dimethylimidazo[1,2-b]pyridazin-6-yl)-6-[(2S,6S)-2,6-dimethyl-4-piperidyl]pyrido[2,3-d]pyridazin-5-one]	0.1 to 1 µM	0.1 to 1 µM	0.1 to 1 µM	–	–	0.1 to 1 µM
CN1CCC(n2cnc3cc(-c4ccc5nn(C)cc5c4)ccc3c2=O)CC1 [Compound 208]	–	1 to 10 µM	–	1 to 10 µM	> 10 µM	1 to 10 µM
CN1CCC(n2cnc3cc(-c4cc(F)c5nn(C)cc5c4)ccc3c2=O)CC1 [Compound 209]	–	0.1 to 1 µM	–	0.1 to 1 µM	1 to 10 µM	0.1 to 1 µM
Cc1nc2c(F)cc(-c3ccc4c(c3)CCN(C3CCNCC3)C4=O)cc2o1 [Compound 215]	–	1 to 10 µM	–	1 to 10 µM	1 to 10 µM	1 to 10 µM
Cc1cn2cc(-c3ccc4c(c3)CCN(C3CCNCC3)C4=O)c(C)cc2n1 [Compound 218, 6-[2,7-dimethylimidazo[1,2-a]pyridin-6-yl]-2-(piperidin-4-yl)-3,4-dihydroisoquinolin-1-one]	–	1 to 10 µM	–	1 to 10 µM	1 to 10 µM	1 to 10 µM
Cc1cc(-c2ccc3c(c2)CCN(C2CCNCC2)C3=O)cc2cn(C)nc12 [Compound 219, 6-(2,7-dimethylindazol-5-yl)-2-(piperidin-4-yl)-3,4-dihydroisoquinolin-1-one]	–	0.1 to 1 µM	–	0.1 to 1 µM	1 to 10 µM	0.1 to 1 µM
O=C1c2ccc(-c3cn[nH]c3)cc2CCN1C1CCNCC1 [Compound 220, 2-(piperidin-4-yl)-6-(1H-pyrazol-4-yl)-3,4-dihydroisoquinolin-1-one]	–	> 10 µM	–	> 10 µM	> 10 µM	> 10 µM
Cc1cn2nc(-c3ccc4c(c3)CCN(C3CCNCC3)C4=O)nc2c(C)n1 [Compound 222, 6-[6,8-dimethyl-[1,2,4]triazolo[1,5-a]pyrazin-2-yl]-2-(piperidin-4-yl)-3,4-dihydroisoquinolin-1-one]	–	1 to 10 µM	–	1 to 10 µM	1 to 10 µM	1 to 10 µM
Cc1cn2nc(-c3ccc4c(c3)CCN(C3CCNCC3)C4=O)cc2c(C)n1 [Compound 223, 6-[4,6-dimethylpyrazolo[1,5-a]pyrazin-2-yl]-2-(piperidin-4-yl)-3,4-dihydroisoquinolin-1-one]	–	0.1 to 1 µM	–	0.1 to 1 µM	> 10 µM	0.1 to 1 µM
Cn1cc2cc(-c3ccc4c(c3)CCN(C3CCNCC3)C4=O)cc(F)c2n1 [Compound 225]	–	> 10 µM	–	> 10 µM	> 10 µM	> 10 µM
Cc1nc2c(F)cc(-c3ccc4c(c3)CCN(C3CCNCC3)C4=O)cc2s1 [Compound 226]	–	1 to 10 µM	–	1 to 10 µM	> 10 µM	1 to 10 µM
Cc1cc(-c2cc(F)c3c(=O)n(C4CCNCC4)cnc3c2)cc2cn(C)nc12 [Compound 232]	–	< 0.1 µM	–	< 0.1 µM	0.1 to 1 µM	< 0.1 µM
Cc1cc(-c2cc(F)c3c(=O)n(C4CCN(C)CC4)cnc3c2)cc2cn(C)nc12 [Compound 233]	–	0.1 to 1 µM	–	0.1 to 1 µM	1 to 10 µM	0.1 to 1 µM
Cc1cc(-c2ccc3c(=O)n(C4CCNCC4)cnc3c2F)cc2cn(C)nc12 [Compound 234]	–	1 to 10 µM	–	1 to 10 µM	> 10 µM	1 to 10 µM
Cc1cc(-c2ccc3c(=O)n(C4CCN(C)CC4)cnc3c2F)cc2cn(C)nc12 [Compound 235]	–	> 10 µM	–	> 10 µM	> 10 µM	> 10 µM
Cc1cn2nc(-n3cnc4cc(N5CCNCC5)ccc4c3=O)cc(C)c2n1 [Compound 241]	–	1 to 10 µM	–	1 to 10 µM	1 to 10 µM	1 to 10 µM
